Measured values taken from patent US20210128536A1, “WEAKLY BASIC DRUG AND IONIC POLYMER PHARMACEUTICAL FORMULATIONS AND METHODS OF FORMATION AND ADMINISTRATION THEREOF” (DISPERSOL TECHNOLOGIES, LLC, priority 2019, published 2021).

Assay: Thermal stability by thermogravimetric analysis (TGA)
Assay type: physicochemical
Settings: at relevant processing temperatures (<250° C.)
Experimental: Prior to thermokinetic processing, thermal stability of BI 667 was assessed using thermogravimetric analysis (TGA). BI 667 was considered stable (<1% mass loss on TGA) at relevant processing temperatures (<250° C.). […] (data not shown). […] Thus, a max processing temperature (and therefore ejection set point temperature) of the mixture was set at 160° C. TGA was performed on a TGA/DSC 1 (Mettler Toledo, Schwerzenbach, Switzerland). The temperature ramp utilized in this study was performed from 25 to 300° C. at a rate of 5° C./min with a nitrogen purge of 50 mL/min. Data were analyzed using STARE System.

mass loss on TGA: < 1%
Compound: CS(=O)(=O)c1cc(C2(NC(=O)c3cncc4c3cnn4-c3ccc(F)cc3)CC2)ccn1 [BI 667]
